Test results as given in patent US8420657B2 (Novartis AG, priority 2008, dated 2013).

Key:
GST-JAK2(808-1132) = biological target: T1, GST-JAK2(808-1132) (Homo sapiens, UniProt O60674); experiment: JAK2 kinase assay (Caliper mobility shift, LabChip 3000); type: biochemical
T1 construct: GST-JAK2(808-1132); purchased Invitrogen (Carlsbad, USA) #4288
How it was run: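 Eight-point compound series (final 10–0.003 μM) tested on purchased GST-JAK2 kinase domain (808-1132). Peptide FITC-JAK3tide plus ATP reacted 60 min, 30 °C, then quenched with EDTA; turnover from charge-based separation of substrate and product.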

[1] = tested on: JAK2-dependent nuclear translocation of STAT5-GFP in U-2 OS osteosarcoma cells; experiment: STAT5 nuclear translocation assay (Cellomics), rhEpo stimulated U-2 OS STAT5-GFP cells; type: cell-based; conditions: Homo sapiens, U2OS; STAT5 translocation pathway
How it was run: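 U-2 OS cells stably expressing STAT5a-GFP and EpoR pre-treated with compound (final 10 μM to 0.003 μM, 0.1% DMSO) for 30 min at 37° C., then stimulated 1 h with 5 U/ml rhEpo. Nuclear-cytoplasmic GFP differential quantified by automated imaging (≥1000 cells/well, Hoechst nuclear mask). IC50 from % translocation normalized to untreated and DMSO-stimulated controls.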

T1 sequence (O60674 808-1132): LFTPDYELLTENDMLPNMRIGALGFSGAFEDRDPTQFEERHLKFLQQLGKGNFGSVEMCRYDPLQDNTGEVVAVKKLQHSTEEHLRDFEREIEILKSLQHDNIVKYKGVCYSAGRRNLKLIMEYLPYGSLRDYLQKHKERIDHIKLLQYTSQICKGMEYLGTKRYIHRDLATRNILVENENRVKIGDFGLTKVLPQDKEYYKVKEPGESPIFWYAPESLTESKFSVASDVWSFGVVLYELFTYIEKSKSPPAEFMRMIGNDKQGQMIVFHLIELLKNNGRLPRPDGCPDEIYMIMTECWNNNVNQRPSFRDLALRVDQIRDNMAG

SMILES	IC50 (GST-JAK2(808-1132)) [nM]	IC50 [1] [nM]
OC1CN(Cc2cc(Nc3ncc4ccn(-c5cc(F)c(CN6CCOCC6)c(F)c5)c4n3)ccc2Cl)C1 [Example 400, 1-{2-Chloro-5-[7-(3,5-difluoro-4-morpholin-4-ylmethyl-phenyl)-7H-pyrrolo[2,3-d]pyrimidin-2-ylamino]-benzyl}-azetidin-3-ol]	7	1.7
Fc1cc(-n2ccc3cnc(Nc4ccc(Cl)c(CN5CCNCC5)c4)nc32)cc(F)c1CN1CCOCC1 [Example 401, (4-Chloro-3-piperazin-1-ylmethyl-phenyl)-[7-(3,5-difluoro-4-morpholin-4-ylmethyl-phenyl)-7H-pyrrolo[2,3-d]pyrimidin-2-yl]-amine]	7	138
CN1CCN(Cc2cc(Nc3ncc4ccn(-c5ccc(C(=O)N6CCS(=O)(=O)CC6)c(F)c5)c4n3)ccn2)CC1 [Example 406, (1,1-Dioxido-thiomorpholin-4-yl)-(2-fluoro-4-{2-[2-(4-methyl-piperazin-1-ylmethyl)-pyridin-4-ylamino]-pyrrolo[2,3-d]pyrimidin-7-yl}-phenyl)-methanone]	4	> 4000
Cc1ccc(Nc2ncc3ccn(-c4cc(F)c(CN5CCOCC5)c(F)c4)c3n2)cc1Cn1cc(CN(C)C)nn1 [Example 418, [7-(3,5-Difluoro-4-morpholin-4-ylmethyl-phenyl)-7H-pyrrolo[2,3-d]pyrimidin-2-yl]-[3-(4-dimethylaminomethyl-[1,2,3]triazol-1-ylmethyl)-4-methyl-phenyl]-amine]	4.6	16
Cc1ccc(Nc2ncc3ccn(-c4cc(F)c(CN5CCOCC5)c(F)c4)c3n2)cc1Cn1cc(CO)nn1 [Example 419, (1-{5-[7-(3,5-Difluoro-4-morpholin-4-ylmethyl-phenyl)-7H-pyrrolo[2,3-d]pyrimidin-2-ylamino]-2-methyl-benzyl}-1H-[1 2,3]triazol-4-yl)-methanol]	4.3	38.5
Cc1ccc(Nc2ncc3ccn(-c4cc(F)c(CN5CCS(=O)(=O)CC5)c(F)c4)c3n2)cc1CN1CCN(C)CC1 [Example 421, {7-[4-(1,1-Dioxido-thiomorpholin-4-ylmethyl)-3,5-difluoro-phenyl]-7H-pyrrolo[2,3-d]pyrimidin-2-yl}-[4-methyl-3-(4-methyl-piperazin-1-ylmethyl)-phenyl]-amine]	≤ 3	2.7
Cc1ccc(Nc2ncc3ccn(-c4cc(F)c(CN5CCS(=O)(=O)CC5)c(F)c4)c3n2)cc1CN1CCN(C)C(=O)C1 [Example 422, 4-(5-{7-[4-(1,1-Dioxido-thiomorpholin-4-ylmethyl)-3,5-difluoro-phenyl]-7H-pyrrolo[2,3-d]pyrimidin-2-ylamino}-2-methyl-benzyl)-1-methyl-piperazin-2-one]	≤ 3	5.7
Cc1ccc(Nc2ncc3ccn(-c4cc(F)c(CN5CCS(=O)(=O)CC5)c(F)c4)c3n2)cc1CN1CC(O)C1 [Example 423, 1-(5-{7-[4-(1,1-Dioxido-thiomorpholin-4-ylmethyl)-3,5-difluoro-phenyl]-7H-pyrrolo[2,3-d]pyrimidin-2-ylamino}-2-methyl-benzyl)-azetidin-3-ol]	≤ 3	5.9
Fc1cc(-n2ccc3cnc(Nc4ccc5c(c4)C4CCC5N4)nc32)cc(F)c1CN1CCOCC1 (centres unmarked) [Example 424, [7-(3,5-Difluoro-4-morpholin-4-ylmethyl-phenyl)-7H-pyrrolo[2,3-d]pyrimidin-2-yl]-(1,2,3 4-tetrahydro-1,4-epiazano-naphthalen-6-yl)-amine]	≤ 3	9
Cc1ccc(Nc2ncc3ccn(-c4cc(F)c(CN5CCS(=O)(=O)CC5)c(F)c4)c3n2)cc1CN1CCNCC1 [Example 428, {7-[4-(1,1-Dioxido-thiomorpholin-4-ylmethyl)-3,5-difluoro-phenyl]-7H-pyrrolo[2,3-d]pyrimidin-2-yl}-(4-methyl-3-piperazin-1-ylmethyl-phenyl)-amine]	≤ 3	10.7
Cc1cc(Nc2ncc3ccn(-c4cc(F)c(CN5CCS(=O)(=O)CC5)c(F)c4)c3n2)cnc1N1C[C@@H](C)N[C@@H](C)C1 [Example 429]	≤ 3	41
C[C@@H]1CN(c2ncc(Nc3ncc4ccn(-c5cc(F)c(CN6CCS(=O)(=O)CC6)c(F)c5)c4n3)cc2Cl)C[C@H](C)N1 [Example 430, [5-Chloro-6-(cis-3,5-dimethyl-piperazin-1-yl)-pyridin-3-yl]-{7-[4-(1,1-dioxido-thiomorpholin-4-ylmethyl)-3,5-difluoro-phenyl]-7H-pyrrolo[2,3-d]pyrimidin-2-yl}-amine]	≤ 3	3.6
Fc1cc(-n2ccc3cnc(Nc4ccc5c(c4)NCC5)nc32)cc(F)c1CN1CCOCC1 [Example 431, [7-(3,5-Difluoro-4-morpholin-4-ylmethyl-phenyl)-7H-pyrrolo[2,3-d]pyrimidin-2-yl]-(2,3-dihydro-1H-indol-6-yl)-amine]	3.2	23.5
Cc1cc(Nc2ncc3ccn(-c4cc(F)c(CN5CCS(=O)(=O)CC5)c(F)c4)c3n2)cc(C)c1OCCN1CCOCC1 [Example 432, [3,5-Dimethyl-4-(2-morpholin-4-yl-ethoxy)-phenyl]-{7-[4-(1,1-dioxido-thiomorpholin-4-ylmethyl)-3,5-difluoro-phenyl]-7H-pyrrolo[2,3-d]pyrimidin-2-yl}-amine]	≤ 3	0.4
Cc1cc(Nc2ncc3ccn(-c4cc(F)c(CN5CCOCC5)c(F)c4)c3n2)cc(C)c1OCCN1CCOCC1 [Example 433, [7-(3,5-Difluoro-4-morpholin-4-ylmethyl-phenyl)-7H-pyrrolo[2,3-d]pyrimidin-2-yl]-[3,5-dimethyl-4-(2-morpholin-4-yl-ethoxy)-phenyl]-amine]	≤ 3	6.3
Cc1ccc(Nc2ncc3ccn(-c4cc(F)c(CN5CCOCC5)c(F)c4)c3n2)cc1CN1[C@H]2CC[C@@H]1CC2 [Example 436, [3-(7-Aza-bicyclo[2.2.1]hept-7-ylmethyl)-4-methyl-phenyl]-[7-(3,5-difluoro-4-morpholin-4-ylmethyl-phenyl)-7H-pyrrolo[2,3-d]pyrimidin-2-yl]-amine]	≤ 3	6.1

Results, then the molecule that gave them:

IC50 (GST-JAK2(808-1132)) [nM]	IC50 [1] [nM]	SMILES
≤ 3	1370	Fc1cc(-n2ccc3cnc(Nc4ccnc(CN5CCC(F)(F)C5)c4)nc32)cc(F)c1CN1CCOCC1 [Example 402, [7-(3,5-Difluoro-4-morpholin-4-ylmethyl-phenyl)-7H-pyrrolo[2,3-d]pyrimidin-2-yl]-[2-(3,3-difluoro-pyrrolidin-1-ylmethyl)-pyridin-4-yl]-amine]
≤ 3	3.2	COC1CN(Cc2cc(Nc3ncc4ccn(-c5cc(F)c(CN6CCOCC6)c(F)c5)c4n3)ccc2C)C1 [Example 405, [7-(3,5-Difluoro-4-morpholin-4-ylmethyl-phenyl)-7H-pyrrolo[2,3-d]pyrimidin-2-yl]-[3-(3-methoxy-azetidin-1-ylmethyl)-4-methyl-phenyl]-amine]
≤ 3	305	Fc1cc(-n2ccc3cnc(Nc4ccnc(CN5CCN(C6CC6)CC5)c4)nc32)cc(F)c1CN1CCOCC1 [Example 407, [2-(4-Cyclopropyl-piperazin-1-ylmethyl)-pyridin-4-yl]-[7-(3,5-difluoro-4-morpholin-4-ylmethyl-phenyl)-7H-pyrrolo[2,3-d]pyrimidin-2-yl]-amine]
≤ 3	81.6	O=C1CNCCN1Cc1cc(Nc2ncc3ccn(-c4cc(F)c(CN5CCOCC5)c(F)c4)c3n2)ccn1 [Example 409, 1-{4-[7-(3,5-Difluoro-4-morpholin-4-ylmethyl-phenyl)-7H-pyrrolo[2,3-d]pyrimidin-2-ylamino]-pyridin-2-ylmethyl}-piperazin-2-one]
≤ 3	8.3	Cc1ccc(Nc2ncc3ccn(-c4cc(F)c(CN5CCOCC5)c(F)c4)c3n2)cc1CN1CCN(CCN(C)C)C(=O)C1 [Example 410, 4-{5-[7-(3,5-Difluoro-4-morpholin-4-ylmethyl-phenyl)-7H-pyrrolo[2,3-d]pyrimidin-2-ylamino]-2-methyl-benzyl}-1-(2-dimethylamino-ethyl)-piperazin-2-one]
≤ 3	26.5	Cc1ccc(Nc2ncc3ccn(-c4cc(F)c(CN5CCOCC5)c(F)c4)c3n2)cc1Cn1ccnc1 [Example 412, [7-(3,5-Difluoro-4-morpholin-4-ylmethyl-phenyl)-7H-pyrrolo[2,3-d]pyrimidin-2-yl]-(3-imidazol-1-ylmethyl-4-methyl-phenyl)-amine]
≤ 3	28.5	Cc1ccc(Nc2ncc3ccn(-c4cc(F)c(CN5CCOCC5)c(F)c4)c3n2)cc1Cn1cccn1 [Example 413, [7-(3,5-Difluoro-4-morpholin-4-ylmethyl-phenyl)-7H-pyrrolo[2,3-d]pyrimidin-2-yl]-(4-methyl-3-pyrazol-1-ylmethyl-phenyl)-amine]
≤ 3	4.2	Cc1ccc(Nc2ncc3ccn(-c4cc(F)c(CN5CCOCC5)c(F)c4)c3n2)cc1Cn1cnnc1 [Example 414, [7-(3,5-Difluoro-4-morpholin-4-ylmethyl-phenyl)-7H-pyrrolo[2,3-d]pyrimidin-2-yl]-(4-methyl-3-[1,2,4]triazol-4-ylmethyl-phenyl)-amine]
≤ 3	6.9	Cc1ccc(Nc2ncc3ccn(-c4cc(F)c(CN5CCOCC5)c(F)c4)c3n2)cc1CN1CCN(C)CC1=O [Example 415, 1-{5-[7-(3,5-Difluoro-4-morpholin-4-ylmethyl-phenyl)-7H-pyrrolo[2,3-d]pyrimidin-2-ylamino]-2-methyl-benzyl}-4-methyl-piperazin-2-one]
